According to patent US20240124410A1, “SMALL MOLECULES AND THEIR USE AS MALT1 INHIBITORS” (University of Pittsburgh - Of the Commonwealth System of …, priority 2021, published 2024):

Assays:
OPRM1 = target: T1, OPRM1 (Homo sapiens, UniProt P35372); assay: Eurofins SAFETYscan 78-target panel, off-target effects, OPRM1; assay type: biochemical; conditions: antagonist / blocker / inhibitor mode
T1 construct: Eurofins
Protocol: (§1) FIG. 9. Table summarizing the Eurofins analysis of potential off-target effects of M1i-124. […] values above 10 μM are generally considered to be acceptable. FIG. 10. Representative hematoxylin and eosin (H&E) staining of organ sections (lung, heart, kidney, liver and adrenal) from control and M1i-124 treated mice described in FIG. 6.
(§2) Studies were performed using the services of Touchstone Biosciences and Eurofins Pharma Discovery Services. […] All blood samples (30-50 ul per sample) were taken via tail vein at 5, 15, and 30 minutes, and 1, 2, 4, 6, 8, and 24 hours after dosing. Blood samples are collected in Greiner MiniCollect K2 EDTA tubes, placed on ice, and within 30 minutes, centrifuged at 15,000 g for 5 minutes to obtain plasma samples. All plasma samples are stored at −70° C. until analysis. Plasma samples were prepared for analysis by LC-MS/MS, and key PK parameters, including terminal half-life (t 112), initial plasma concentration (C0), area under the plasma concentration vs. time curve (AUC), volume of distribution at steady-state (Vss), total plasma clearance (CLp), and mean residence time (MRT), were measured.
(§3) Assay details are available through Eurofins.

nAChR(a4/b2) = target: T2, nAChR(a4/b2) (Homo sapiens, UniProt P17787+P43681); assay: Eurofins SAFETYscan 78-target panel, off-target effects, nAChR(a4/b2); assay type: biochemical; conditions: antagonist / blocker / inhibitor mode
T2 construct: Eurofins
T2 sequence (P43681 29-627 limits assumed): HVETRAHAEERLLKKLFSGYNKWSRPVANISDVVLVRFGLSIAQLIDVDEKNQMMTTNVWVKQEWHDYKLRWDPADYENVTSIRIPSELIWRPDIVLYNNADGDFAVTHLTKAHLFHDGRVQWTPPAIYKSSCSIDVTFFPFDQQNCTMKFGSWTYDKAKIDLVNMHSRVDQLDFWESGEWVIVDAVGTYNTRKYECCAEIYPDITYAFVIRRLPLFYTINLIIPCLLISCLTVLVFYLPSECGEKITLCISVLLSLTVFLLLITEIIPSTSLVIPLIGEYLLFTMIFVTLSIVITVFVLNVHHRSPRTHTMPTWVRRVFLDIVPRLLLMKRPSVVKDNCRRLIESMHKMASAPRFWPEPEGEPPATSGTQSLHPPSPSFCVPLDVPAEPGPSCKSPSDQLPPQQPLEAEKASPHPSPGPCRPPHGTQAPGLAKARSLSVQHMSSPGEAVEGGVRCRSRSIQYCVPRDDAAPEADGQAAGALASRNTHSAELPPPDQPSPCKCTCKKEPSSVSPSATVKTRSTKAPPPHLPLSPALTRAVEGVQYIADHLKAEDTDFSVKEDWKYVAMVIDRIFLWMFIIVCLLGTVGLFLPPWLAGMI
T2 sequence (P17787 26-502): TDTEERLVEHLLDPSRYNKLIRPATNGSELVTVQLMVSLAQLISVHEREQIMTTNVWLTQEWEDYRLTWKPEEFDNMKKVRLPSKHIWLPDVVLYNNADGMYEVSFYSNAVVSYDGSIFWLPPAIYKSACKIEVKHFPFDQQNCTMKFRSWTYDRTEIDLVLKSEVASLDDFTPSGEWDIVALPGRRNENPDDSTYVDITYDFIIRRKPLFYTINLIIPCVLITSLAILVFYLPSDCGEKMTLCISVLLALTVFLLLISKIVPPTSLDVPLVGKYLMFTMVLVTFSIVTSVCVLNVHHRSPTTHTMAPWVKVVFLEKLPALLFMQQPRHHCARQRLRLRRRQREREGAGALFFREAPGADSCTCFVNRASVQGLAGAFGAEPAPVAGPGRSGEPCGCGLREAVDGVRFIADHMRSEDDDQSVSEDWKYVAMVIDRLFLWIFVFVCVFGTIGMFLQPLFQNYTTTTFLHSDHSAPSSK
Protocol: as §1, §2, §3

ADRB1 = target: T3, ADRB1 (Homo sapiens, UniProt P08588); assay: Eurofins SAFETYscan 78-target panel, off-target effects, ADRB1; assay type: biochemical; conditions: antagonist / blocker / inhibitor mode
T3 construct: Eurofins
T3 sequence (P08588 whole entry): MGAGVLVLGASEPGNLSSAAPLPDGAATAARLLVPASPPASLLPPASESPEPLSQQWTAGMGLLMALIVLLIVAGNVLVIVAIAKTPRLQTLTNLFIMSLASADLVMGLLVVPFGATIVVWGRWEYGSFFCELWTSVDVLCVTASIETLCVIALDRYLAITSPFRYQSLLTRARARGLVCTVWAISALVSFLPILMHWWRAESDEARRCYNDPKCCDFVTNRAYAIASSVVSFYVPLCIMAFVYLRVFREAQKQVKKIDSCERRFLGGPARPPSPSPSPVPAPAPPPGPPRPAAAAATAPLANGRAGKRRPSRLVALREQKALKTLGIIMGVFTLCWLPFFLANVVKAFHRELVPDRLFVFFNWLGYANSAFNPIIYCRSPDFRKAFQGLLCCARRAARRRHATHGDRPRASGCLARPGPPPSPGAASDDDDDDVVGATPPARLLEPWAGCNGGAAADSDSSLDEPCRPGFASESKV
Protocol: as §1, §2, §3

[1] = system: PMA/iono-induced transcription of interleukin 2 (IL-2); assay: IL-2 transcription in Jurkat T cells (quantitative RT-PCR); assay type: cell-based; conditions: compound at 1 μM
Protocol: The DLBCL cell lines, OCI-Ly1, OCI-Ly3, and OCI-Ly7, were provided by Dr. Mark Minden (University Health Network, Toronto, Ontario, Canada). TMD8 cells were provided by Dr. Louis Staudt (NCI, NIH). OCI-Ly1 and OCI-Ly7 cells were cultured in Iscove's Modified Dulbecco's Medium (IMDM) supplemented with 10% FBS. OCI-Ly3 cells were cultured in IMDM supplemented with 20% FBS. TMD8 and Jurkat T cells were cultured in RPMI1640 medium with 10% FBS. HEK293T cells were cultured in DMEM medium with 10% FBS. All media were supplemented with 100 U/ml penicillin streptomycin. Stimulation of Jurkat cells was conducted by adding 5 ng/ml of phorbol 12-myristatel3 acetate (PMA)(Sigma-Aldrich) and 1μM ionomycin (Calbiochem), or by adding 5-10 μL/mL of ImmunoCult Human CD3/CD28 ([…] Technologies).
Total RNA extraction was performed using RNeasy Plus Mini Kit (Qiagen Cat #74136). 1 ng RNA was transcribed into cDNA using High-Capacity cDNA Reverse Transcription Kit (Applied Biosystems Cat #4368814) according to manufacturer's instructions. RT-PCR reactions were performed using TaqMan gene expression probe sets.

BCL10-MALT1 interaction = target: T4, BCL10-MALT1 interaction (Homo sapiens, UniProt Q9UDY8); assay: ELISA-based protein-protein interaction assay; assay type: binding; design: GST-tagged recombinant human full-length MALT1 protein (Novus Biologicals Cat #H00010892-P01); purchased Novus Biologicals H00010892-P01
T4 sequence (Q9UDY8 1-824): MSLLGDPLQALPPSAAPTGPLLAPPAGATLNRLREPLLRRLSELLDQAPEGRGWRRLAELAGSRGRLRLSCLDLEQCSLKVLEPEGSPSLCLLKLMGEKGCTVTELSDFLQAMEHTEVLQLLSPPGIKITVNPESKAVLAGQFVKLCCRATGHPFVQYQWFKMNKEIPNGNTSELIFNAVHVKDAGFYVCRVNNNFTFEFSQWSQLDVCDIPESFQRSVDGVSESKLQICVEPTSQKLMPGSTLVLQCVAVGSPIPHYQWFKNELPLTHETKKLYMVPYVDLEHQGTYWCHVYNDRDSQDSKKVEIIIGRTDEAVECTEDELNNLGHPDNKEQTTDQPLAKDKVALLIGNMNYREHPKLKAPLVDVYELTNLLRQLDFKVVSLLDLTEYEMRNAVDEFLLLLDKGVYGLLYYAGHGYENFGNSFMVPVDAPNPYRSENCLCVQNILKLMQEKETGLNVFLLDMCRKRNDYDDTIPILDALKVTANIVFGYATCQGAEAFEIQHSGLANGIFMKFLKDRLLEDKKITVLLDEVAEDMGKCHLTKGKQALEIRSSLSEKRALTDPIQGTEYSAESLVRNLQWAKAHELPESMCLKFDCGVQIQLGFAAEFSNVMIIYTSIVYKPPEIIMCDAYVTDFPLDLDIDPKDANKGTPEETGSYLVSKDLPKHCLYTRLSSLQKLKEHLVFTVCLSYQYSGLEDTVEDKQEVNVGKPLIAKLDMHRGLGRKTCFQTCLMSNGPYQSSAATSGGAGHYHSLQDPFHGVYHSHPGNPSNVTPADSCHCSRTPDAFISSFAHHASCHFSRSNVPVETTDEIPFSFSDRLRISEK
Protocol: On a high-binding 96-well ELISA microplate (Greiner Cat #655061), 100 ng of His-tagged recombinant human full-length Bcl10 protein (ProteinTech Cat #Ag12162) in 100 ul PBS was allowed to adhere overnight in 4° C. The plate was blocked with 5% BSA in PBS for 1 hour at room temperature. After washing twice with PBS-T, a mixture of 100 ng of GST-tagged recombinant human full-length MALT1 protein (Novus Biologicals Cat #H00010892-P01), +/−compound that was preincubated for 1 hour in 100 ul PBS, was added to the plate for 1 hour at room temperature. After washing three times with PBS-T, anti-MALT1 antibody in 5% BSA in PBS was added at 1:1000 dilution for 1 hour at room temperature. After washing three times with PBS-T, HRP-conjugated secondary antibody in 5% BSA in PBS was added at 1:5000 dilution for 1 hour at room temperature. After washing three times with PBS-T, 100 ul of TMB was added for 5 minutes, and 100 ul of 2 M sulfuric acid was added to stop the reaction. The plate was read at 450 nm using a spectrophotometer (Molecular Devices SpectraMax i3).

IL-2 secretion = IL-2 secretion (ELISA); assay type: cell-based, human; conditions: dose-response
Protocol: Expression of cytokines from cell culture supernatants was measured 24h after treatment with 0, 0.01, 0.03, 0.1, 0.3, 1, or 3 uM of compounds using the following ELISA kits according to the manufacturer's instructions: Human IL-2 ELISA (BioLegend Cat #431804), Human IL-6 ELISA (BioLegend Cat #430504), and Human IL-10 ELISA (BioLegend Cat #430604).

T1 sequence (P35372 whole entry): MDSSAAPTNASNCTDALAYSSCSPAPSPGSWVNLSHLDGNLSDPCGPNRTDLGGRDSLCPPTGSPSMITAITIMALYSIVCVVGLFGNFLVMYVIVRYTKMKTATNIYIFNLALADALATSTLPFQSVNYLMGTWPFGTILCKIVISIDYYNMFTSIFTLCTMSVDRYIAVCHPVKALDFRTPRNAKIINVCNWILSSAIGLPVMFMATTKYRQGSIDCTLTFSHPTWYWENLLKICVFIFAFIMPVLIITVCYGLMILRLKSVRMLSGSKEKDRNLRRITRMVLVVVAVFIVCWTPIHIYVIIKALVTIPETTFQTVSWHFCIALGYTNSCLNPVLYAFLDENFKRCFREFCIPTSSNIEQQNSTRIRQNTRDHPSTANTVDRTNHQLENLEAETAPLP

Row | SMILES | IC50 (OPRM1) [µM] | IC50 (nAChR(a4/b2)) [µM] | IC50 (ADRB1) [µM] | Transcription of interleukin 2 (IL-2) [1] | ELISA IC50 compared with parent compound M1i-124 (BCL10-MALT1 interaction) | Disruption of the BCL10-MALT1 interaction by ELISA in the presence of tween (BCL10-MALT1 interaction; 0.005% tween) | IL-2 secretion (IL-2 secretion)
1 | O=S(=O)(NCc1ccc2c(c1)OCO2)c1ccc(Cc2ccc(S(=O)(=O)NCc3ccc4c(c3)OCO4)cc2)cc1 [M1i-124] | 3.7 | 4 | 0.8 |  |  |  | 
2 | COc1ccc(CNS(=O)(=O)c2ccc(Cc3ccc(S(=O)(=O)NCc4ccc(OC)cc4)cc3)cc2)cc1 [M1i-124d1] |  |  |  | inhibit | lower IC50 as compared to parent compound | retain the ability to disrupt the BCL10-MALT1 interaction | dose-dependent inhibition
